The text below walks through data of PubChem BioAssay AID1576 (EPA DSSTox, 2009).

For this data set, the target named is Estrogen receptor (Rattus norvegicus) (UniProt P06211). The data set is described as follows: DSSTox (KIERBL) EPA Estrogen Receptor Ki Binding Study (Laws et al.) Database. The conditions noted are these: Rat uterine cytosol ER, 3H-estradiol competitive binding. In short, it runs like this: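 Rat uterine cytosol ER incubated with 0.33 nM 3H-E2 plus increasing test chemical. Secondary Lineweaver-Burk analysis confirmed competitive inhibition and gave Ki (mean ± SE, n=2); IC50 as concentration halving maximal specific binding.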

Activity calls are given as the source filed them.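 The calls were made as follows: active = chemicals shown by follow-up kinetic tests to compete for rat estrogen receptor sites, with a measured inhibition constant; inconclusive = some binding seen but constant unmeasurable owing to poor solubility; inactive = no binding up to top dose, or binding unconfirmed.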

Sequence of Estrogen receptor (Rattus norvegicus) (P06211 whole entry, looked up): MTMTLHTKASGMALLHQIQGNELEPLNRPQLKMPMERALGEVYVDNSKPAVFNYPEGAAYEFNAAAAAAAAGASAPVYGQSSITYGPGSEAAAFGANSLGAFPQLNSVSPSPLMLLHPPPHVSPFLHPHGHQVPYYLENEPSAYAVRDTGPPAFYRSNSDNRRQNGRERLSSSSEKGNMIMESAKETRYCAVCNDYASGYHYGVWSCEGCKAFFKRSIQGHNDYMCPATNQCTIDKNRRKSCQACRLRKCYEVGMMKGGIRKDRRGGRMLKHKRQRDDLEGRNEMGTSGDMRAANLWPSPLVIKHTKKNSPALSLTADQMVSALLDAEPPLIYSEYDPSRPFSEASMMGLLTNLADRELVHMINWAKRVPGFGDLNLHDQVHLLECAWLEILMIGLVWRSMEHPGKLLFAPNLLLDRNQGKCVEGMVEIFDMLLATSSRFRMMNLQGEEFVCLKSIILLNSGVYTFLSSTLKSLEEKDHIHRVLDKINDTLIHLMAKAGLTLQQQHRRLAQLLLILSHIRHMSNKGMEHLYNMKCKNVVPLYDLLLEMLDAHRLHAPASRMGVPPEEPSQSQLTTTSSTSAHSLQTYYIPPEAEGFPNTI

On to `Cc1c(C)c2c(c(C)c1O)CC[C@@](C)(CCC[C@H](C)CCC[C@H](C)CCCC(C)C)O2`, for which the outcome is “inactive; none”.

On to `CCC[CH2][Sn]([CH2]CCC)([CH2]CCC)[O][Sn]([CH2]CCC)([CH2]CCC)[CH2]CCC`, for which the outcome is “inactive; none”.
